Test results as given in patent US5563125A, “5'-deoxy-5'-(substituted)alkylthioribose compounds and their pharmaceutical compositions” (priority 1992, dated 1996).
Where two headings read alike, the source gives them in different places.

Assays:
[1] = test system: T. b. brucei procyclic trypanosomes (Lab 110 EATRO strain); test: In vitro antitrypanosomal activity, procyclic trypanosomes in T2 medium; type: cell-based, Trypanosoma brucei brucei; conditions: 3-5 days
Protocol: The antitrypanosomal effects of HETA and other nucleosides were examined in the Lab 110 EATRO strain of T. b. brucei in culture.
Cells were cultured as described in Bacchi et al. Exp. Parasitol. 68, 392, 1989. Cells were then grown in the presence of the compounds for 3-5 days. Drugs were filtered, sterilized and added aseptically. Control cells achieved a maximum density of 1.5-3.5×10^7 /ml. Hemocytometer counts were made daily and the results were expressed as a percent of control growth. IC50 plots were obtained by graphing log (drug) vs. percent growth inhibition.
Trypanocidal Activity of MTA and MTR Analogs
against T. b. brucei procyclic trypanosomes in T2 medium.

[2] = biological target: T1, T. b. brucei MTA phosphorylase (Trypanosoma brucei, UniProt Q57XS4); test: T. b. brucei MTA phosphorylase substrate assay; type: biochemical; conditions: for Percent Control Activity: relative to MTA
T1 construct: MTA or analogs as substrates
T1 sequence (Q57XS4 entry or part of it): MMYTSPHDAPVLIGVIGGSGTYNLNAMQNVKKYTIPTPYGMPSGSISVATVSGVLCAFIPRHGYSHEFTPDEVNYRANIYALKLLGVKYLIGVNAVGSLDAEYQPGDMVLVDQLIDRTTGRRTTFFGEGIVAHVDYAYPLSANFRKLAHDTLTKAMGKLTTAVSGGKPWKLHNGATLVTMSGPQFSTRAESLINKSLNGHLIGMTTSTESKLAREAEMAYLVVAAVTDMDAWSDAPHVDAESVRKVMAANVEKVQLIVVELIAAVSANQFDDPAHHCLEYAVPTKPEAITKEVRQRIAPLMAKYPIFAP
Protocol: ^a MTA phosphorylase was assayed according to Ghoda et al., using 200
μM MTA (saturating) or analogs as substrates. Specific activities of
the dialyzed enzyme preparations were with 50 mM PO4, 104.97 n
moles/mg protein/h; without PO4, 28.27 n moles/mg protein/h. Results
are expressed as percent activity compared to as substrate with and
without PO4, respectively.

[3] = test system: CCRF-CEM cells (MTA phosphorylase-deficient); test: Growth inhibition of CCRF-CEM cells; type: cell-based, human; conditions: 96 h
Protocol: (§1) L1210, L5178Y and MOLT-4 cell lines were grown in RPMI 1640 and 10% Nu Serum (Collaborative Research Inc., Lexington, Mass.) and CCRF-CEM cells were grown in 10% Horse Serum (Gibco Laboratories, Grand Island, N.Y.) and maintained as previously described for suspension cultures by Pera et al. in Cancer Res. 46, 1148, 1986. Cell cultures (0.3×10^5 cells/ml) were treated with each compound at 0.1 to 1000 μM to determine the concentration that inhibited growth by 50% (IC50) at 48 hr for the L1210 and L5178Y cells and at 96 hr for the CCRF-CEM and MOLT-4 cells. The incubation times allowed approximately 4 cell doublings in each cell line. All compounds were freshly prepared prior to treatment by dissolving in DMSO and diluting in serum-free media. Cells were counted by electron particle counting (Model XF' Coulter Counter; Coulter Electronics, Hialeah, Fla.).
(§2) For each compound, the concentrations required to inhibit cell growth by 50% (IC50 values) are shown in Table 7 for two murine leukemic cell lines, L1210 and L5178Y [MTA phosphorylase-deficient and MTA phosphorylase-containing, respectively] and two human leukemic cell lines, CCRF-CEM and MOLT-4 [MTA phosphorylase-deficient and MTA phosphorylase-containing, respectively]. ETA, MFETA, HETA and PTA had lower IC50 values in the L5178Y cells than in the L1210 cells. […] This differential is consistent with the possibility that, in L5178Y cells, MFETA is cleaved by MTA phosphorylase to the growth inhibitory metabolite, 5-monofluoroethylthioribose-1-phosphate (MFETR-1-P).

[4] = test system: L1210 cells (MTA phosphorylase-deficient); test: Growth inhibition of L1210 cells; type: cell-based, mouse; conditions: L1210, 48 h
Protocol: as §1, §2

[5] = biological target: T2, Mouse Liver MTA Phosphorylase (Mus musculus, UniProt Q9CQ65); test: Mouse liver MTA phosphorylase substrate/inhibitor assay; type: biochemical; conditions: for Substrate (% Control): substrate activity relative to MTA
T2 sequence (Q9CQ65 1-283): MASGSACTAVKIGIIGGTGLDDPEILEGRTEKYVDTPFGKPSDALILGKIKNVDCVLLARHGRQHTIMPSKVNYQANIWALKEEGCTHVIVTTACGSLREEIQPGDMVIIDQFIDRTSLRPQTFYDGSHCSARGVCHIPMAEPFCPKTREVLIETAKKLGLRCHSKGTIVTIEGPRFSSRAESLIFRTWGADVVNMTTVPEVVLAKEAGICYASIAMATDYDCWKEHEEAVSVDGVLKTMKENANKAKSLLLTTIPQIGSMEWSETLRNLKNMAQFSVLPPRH
Protocol: ^a MTA phosphorylase activity was assayed as described in Sufrin et

[6] = test system: L5178Y cells (MTA phosphorylase-containing); test: Growth inhibition of L5178Y cells; type: cell-based, mouse; conditions: 48 h
Protocol: as §1, §2

[7] = test system: MOLT-4 cells (MTA phosphorylase-containing); test: Growth inhibition of MOLT-4 cells; type: cell-based, human; conditions: MOLT-4, 96 h
Protocol: as §1, §2

[8] = test system: Trichomonas vaginalis ATCC 3001; test: Minimum lethal concentration against Trichomonas vaginalis, multiwell plate assay, ATCC 3001; type: cell-based
From the text: (§3) Preliminary in vitro evaluation of HETA and other compounds against isolates of Trichomonas vaginalis was done.
(§4) Values are expressed as μg of compound per ml of medium required to inhibit growth and motility of the parasite in a multiwell plate assay as described by Meingassner, Mieth, Czok, Lindmark and Muller (1978) Antimicrob. Agents and Chemother. 13, 1-3. The present drug used for treatment--metronidazole (Flagyl®) is included for comparison. Strain ATCC 50143 (CDC-85) was refractory to chemotherapeutic dose levels of metronidazole. (ND=not done).

[9] = test system: Trichomonas vaginalis ATCC 50143 (CDC-85), metronidazole-resistant; test: Minimum lethal concentration against Trichomonas vaginalis, multiwell plate assay, ATCC 50143 (CDC-85); type: cell-based
From the text: as §3, §4

P. falciparum = test: In vitro antimalarial activity of HETA; type: cell-based, Plasmodium falciparum; conditions: for growth of the microorganism inhibited in an in vitro screen: P. falciparum in vitro screen
[10] = test system: EATRO 110 strain of T. b. brucei; test: Bloodstream forms of African trypanosomes grown in vitro, EATRO 110; type: cell-based; conditions: day 4
Protocol: (§5) Cultures were initiated directly from infected mouse blood into Falcon 24 well plates containing 1 ml of Iscoves modified Dulbecco's medium plus 20% horse serum, 2 mM pyruvate, 2 mM glutamine, and 0.2 uM mercaptoethanol. Initial cell counts were 2.5-5.0×10^5 /ml. Plates were incubated at 37 C. in 5 percent CO2. HETA was dissolved in the medium and filter sterilized. One half the volume of each well was replaced with fresh medium each day.
(§6) Cell counts were made daily. Data are given as percent inhibition of growth as determined by hemocytometer counts on day 4 as compared to control cultures without drug.
(§7) In Table 2, EATRO 110 is a strain of T. b. brucei; and KETRI 2002, and KETRI 243 are T. b. rhodesiense clinical isolates.

[11] = test system: T. b. brucei LAB 110 EATRO; test: In vivo antitrypanosomal activity, LAB EATRO mouse infection model; conditions: miniosmotic pump
Protocol: ^a Animals were treated with surgically implanted miniosmotic pumps
loaded as per manufacturers instructions with MTA, HETA or MFETA suspende

[12] = test system: KETRI 243 T. b. rhodesiense clinical isolate; test: Bloodstream forms of African trypanosomes grown in vitro, KETRI 243; type: cell-based; conditions: day 4
Protocol: as §5, §6, §7

[13] = test system: KETRI 2002 T. b. rhodesiense clinical isolate; test: Bloodstream forms of African trypanosomes grown in vitro, KETRI 2002; type: cell-based; conditions: day 4
Protocol: as §5, §6, §7

N=C(N)c1ccc(N=NNc2ccc(C(=N)N)cc2)cc1 [BERENIL]
IC50 ([1]; Trypanosoma brucei): 0.2 µM

Nc1ncnc2c1ncn2[C@@H]1O[C@H](CSCCBr)[C@@H](O)[C@H]1O [BETA, 5'-deoxy-5'-(bromoethylthio)adenosine]
IC50 [1]: 0.5 µM | Percent Control Activity ([2]; +50 mM PO4, 200 μM substrate): 88.8% | Percent Control Activity ([2]; No PO4, 200 μM substrate): 120% | IC50 [3]: 250 ± 50 µM | IC50 [4]: 150 µM | Ki [5]: 6.5 µM | Substrate (% Control) [5]: 38 % Control | IC50 [6]: 150 µM | IC50 [7]: 25 ± 10 µM

Nc1ncnc2c1ncn2[C@@H]1O[C@H](CSCCCl)[C@@H](O)[C@H]1O [CETA, 5'-deoxy-5'-(chloroethylthio)adenosine]
IC50 [1]: 2.5 µM | Percent Control Activity ([2]; +50 mM PO4, 200 μM substrate): 60% | Percent Control Activity ([2]; No PO4, 200 μM substrate): 94.4% | Minimum lethal concentration (MLC) ([8]; ATCC 3001, 24 h): 93.7 µg/mL | Minimum lethal concentration (MLC) ([8]; ATCC 3001, 48 h): 23.4 µg/mL | IC50 [3]: 240 ± 90 µM | IC50 [4]: 250 µM | Ki [5]: 12 µM | Substrate (% Control) [5]: 35 % Control | Minimum lethal concentration (MLC) ([9]; ATCC 50143, 24 h): 187.5 µg/mL | Minimum lethal concentration (MLC) ([9]; ATCC 50143, 48 h): 11.7 µg/mL | activity against metronidazole(Flagyl)-resistant strain CDC-85 ([9]; CDC-85 strain, preliminary in vitro evaluation): active | IC50 [6]: 200 µM | IC50 [7]: 30 ± 20 µM

CCSC[C@H]1O[C@@H](n2cnc3c(N)ncnc32)[C@H](O)[C@@H]1O [ETA, reference compound]
IC50 ([1]; Trypanosoma brucei): 138 µM | Percent Control Activity ([2]; +50 mM PO4, 200 μM substrate): 76.2% | Percent Control Activity ([2]; No PO4, 200 μM substrate): 100% | IC50 ([3]; Homo sapiens): 200 ± 100 µM | IC50 ([4]; Mus musculus): 800 ± 100 µM | Substrate (% Control) [5]: 95 % Control | IC50 ([6]; Mus musculus): 250 ± 100 µM | growth of the microorganism inhibited in an in vitro screen (P. falciparum): inhibited | IC50 ([7]; Homo sapiens): 20 ± 10 µM

Nc1ncnc2c1ncn2[C@@H]1O[C@H](CSCCO)[C@@H](O)[C@H]1O [HETA, 5'-deoxy-5'-(hydroxyethylthio)adenosine]
IC50 ([1]; Trypanosoma brucei): 0.5 µM | Percent Control Activity ([2]; +50 mM PO4, 200 μM substrate): 85% | Percent Control Activity ([2]; No PO4, 200 μM substrate): 100% | metabolism by T. b. brucei MTA phosphorylase ([2]; compared with MTA): as effectively as MTA itself | activity against the C1-NIH strain ([8]; C1-NIH strain, preliminary in vitro evaluation): displays activity | IC50 ([3]; Homo sapiens): 100 µM | percent inhibition of growth ([10]; 0.1 um HETA): 0% | percent inhibition of growth ([10]; 0.5 um HETA): 44% | percent inhibition of growth ([10]; 1.0 um HETA): 59% | percent inhibition of growth ([10]; 2.25 um HETA): 70% | % Cured ([11]; 25 mg/kg/day, 7 days): 73% | MSD (mean survival in days of animals dying of infection) ([11]; 25 mg/kg/day, 7 days): 15.3 days | Number Cured Total ([11]; 25 mg/kg/day, 7 days): 11/15 | % Cured ([11]; 50 mg/kg/day, 7 days): 68% | MSD (mean survival in days of animals dying of infection) ([11]; 50 mg/kg/day, 7 days): 14.5 days | Number Cured Total ([11]; 50 mg/kg/day, 7 days): 17/25 | % Cured ([11]; 50 mg/kg/day, 14 days): 60% | MSD (mean survival in days of animals dying of infection) ([11]; 50 mg/kg/day, 14 days): 18.1 days | Number Cured Total ([11]; 50 mg/kg/day, 14 days): 9/15 | % Cured ([11]; 100 mg/kg/day, 7 days): 87% | MSD (mean survival in days of animals dying of infection) ([11]; 100 mg/kg/day, 7 days): 26.0 days | Number Cured Total ([11]; 100 mg/kg/day, 7 days): 13/15 | % Cured ([11]; 150 mg/kg/day, 7 days): 90% | MSD (mean survival in days of animals dying of infection) ([11]; 150 mg/kg/day, 7 days): 14.5 days | Number Cured Total ([11]; 150 mg/kg/day, 7 days): 18/20 | percent inhibition of growth ([12]; 0.1 um HETA): 0% | percent inhibition of growth ([12]; 0.5 um HETA): 0% | percent inhibition of growth ([12]; 1.0 um HETA): 0% | percent inhibition of growth ([12]; 2.25 um HETA): 0% | IC50 ([4]; Mus musculus): 1000 µM | Ki ([5]; mouse liver MTA phosphorylase, read-out: K1): 26 µM | Substrate (% Control) [5]: 34 % Control | IC50 ([6]; Mus musculus): 500 µM | growth of the microorganism inhibited in an in vitro screen (P. falciparum): inhibited | IC50 (P. falciparum; Plasmodium falciparum, P. falciparum in vitro): ~22 µM | percent inhibition of growth ([13]; 0.1 um HETA): 0% | percent inhibition of growth ([13]; 0.5 um HETA): 0% | percent inhibition of growth ([13]; 1.0 um HETA): 15% | percent inhibition of growth ([13]; 2.25 um HETA): 60% | IC50 ([7]; Homo sapiens): 40 µM
